Results taken from ChEMBL document CHEMBL1133878, “Selectivity enhancement induced by substitution of non-natural analogues of arginine and lysine in arginine-based thrombin inhibitors” (Bioorg Med Chem Lett, 2001).

Tests used:
Prothrombin = Prothrombin (Homo sapiens, UniProt P00734); assay: Binding affinity determined against thrombin by Dixon method
Serine protease 1 = biological target: T1, Serine protease 1 (Bos taurus, UniProt P00760); assay: Binding affinity determined against trypsin by Dixon method
T1 sequence (P00760 whole entry): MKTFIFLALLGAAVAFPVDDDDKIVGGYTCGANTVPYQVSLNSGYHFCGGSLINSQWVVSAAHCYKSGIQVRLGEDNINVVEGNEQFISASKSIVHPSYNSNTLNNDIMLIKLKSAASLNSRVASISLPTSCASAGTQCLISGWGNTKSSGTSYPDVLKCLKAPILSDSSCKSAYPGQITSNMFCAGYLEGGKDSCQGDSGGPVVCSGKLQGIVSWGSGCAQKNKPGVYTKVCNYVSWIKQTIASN

[1] = biological target: Thrombin & trypsin (Homo sapiens) (UniProt P00734+P07477+P07478+P35030); assay: Selectivity ratio (trypsin/thrombin) was calculated; assay type: protein assay

| Ki (Prothrombin) | Ki (Serine protease 1) | Selectivity ratio [1] | SMILES |
| --- | --- | --- | --- |
| 83 nM | 2.34 µM | 28.2 | CN(C)c1cccc2c(S(=O)(=O)NC(CCCN=C(N)N)C(=O)N3CCCCC3)cccc12 (stereo unspecified) |
|  | 116 µM | 29.4 | CN(C)c1cccc2c(S(=O)(=O)NC(CCCNC3=NCCN3)C(=O)N3CCCCC3)cccc12 (stereo unspecified) |
| > 10000 nM |  |  | CN(C)c1cccc2c(S(=O)(=O)NC(CCCNC3=NCCCN3)C(=O)N3CCCCC3)cccc12 (stereo unspecified) |
| 1890 nM | 337 µM | 178 | CC/N=C(/N)NCCCC(NS(=O)(=O)c1cccc2c(N(C)C)cccc12)C(=O)N1CCCCC1 (stereo unspecified) |
| 530 nM | 278 µM | 525 | CN(C)c1cccc2c(S(=O)(=O)NC(CCCN3CCN=C3N)C(=O)N3CCCCC3)cccc12 (stereo unspecified) |
| 958 nM | 922 µM | 962 | C/N=C(/N)NCCCC(NS(=O)(=O)c1cccc2c(N(C)C)cccc12)C(=O)N1CCCCC1 (stereo unspecified) |
| > 10000 nM |  |  | CNC(C)CCCCC(NS(=O)(=O)c1cccc2c(N(C)C)cccc12)C(=O)N1CCCCC1 (stereo unspecified) |
